Values quoted from earlier work in patent US20030162237A1, “Methods of monitoring enzyme activity” (priority 2000, published 2003).
Where two headings read alike, the source gives them in different places.

Columns and labels:
[1] = system: human tumor cell lines
[2] = system: stem-loop IIB RNA; details: phosphorylated by PKC or HMK, versus unphosphorylated H6Rev

Compound	expression of malignancy suppressor genes [1]	binds more tightly to stem-loop IIB RNA than unphosphorylated H6Rev [2]	binds more tightly to stem-loop IIB RNA than unphosphorylated H6Rev ([2]; listed as H6Rev)
Nc1ncn([C@H]2C[C@H](O)[C@@H](CO)O2)c(=O)n1 [5-aza-2′-deoxycytidine]	reactivate the expression of many of the malignancy suppressor genes		
P-H6Rev: HIV type-1 Rev protein H6Rev (accession number P04325) phosphorylated by PKC or HMK		ligand 7-fold more tightly than H6Rev.	7 fold
